{"source": "patent US20240158472A1", "about": "“FERRITIN VARIANTS WITH INCREASED STABILITY AND COMPLEXATION ABILITY” (Cellis AG, priority 2021, published 2024)", "system": "siRNA", "test": "Association of ferritin with siRNA, gel", "format": "binding", "protocol": "1 ml reaction containing 2 mg Ft and 4 ug siRNA in DPBS, pH lowered to values as indicated (2.5, 3.2, 4.4, 5.6 and 6.8, respectively). Samples were incubated 15 min in RT, then NaOH was added to adjust pH to neutral (pH 7). Non-associated free siRNA was removed by 4 centrifugation steps on Amicons with 100 kDa cut-off.", "data": [{"substance": "Q11E mutant: Examples 3-8 ferritin variant based on Q11E with added K54E, K72E, K87Q, K144E, C91S, C103S and C131S", "values": [{"measurement": "association with siRNA", "setting": "incubated in pH 2.4 and 3.2", "value": "not"}, {"measurement": "association with siRNA", "setting": "incubated in pH range 4.4 to 6.8, 2 mg Ft and 4 ug siRNA", "value": "associated with siRNA"}]}]}
